Source: the NIST ThermoML archive (doi:10.1021/je400858t)
± gives the expanded uncertainty stated by the source.

Experiments:
[1] = for mass density / thermal conductivity / viscosity: 101.33 kPa, Liquid; for mass density: Vibrating tube method; for thermal conductivity: Parallel plate method; for viscosity: Cone and plate viscometry; for Glass transition temperature: DTA
[2] = molar heat capacity at constant pressure; details: 101.33 kPa, Liquid, Small sample (50 mg) DSC

CCCCCC[n+]1ccn(C)c1.O=S(=O)([N-]S(=O)(=O)C(F)(F)F)C(F)(F)F
mass density ([1]; 283 K): 1385.63 ± 4.2 kg/m3
mass density ([1]; 293 K): 1376.5 ± 4.2 kg/m3
thermal conductivity ([1]; 300 K): 0.12 ± 0.01 W/m/K
mass density ([1]; 303 K): 1367.38 ± 4.1 kg/m3
mass density ([1]; 313 K): 1358.3 ± 4.1 kg/m3
mass density ([1]; 323 K): 1349.27 ± 4.1 kg/m3
mass density ([1]; 333 K): 1340.34 ± 4 kg/m3
mass density ([1]; 343 K): 1331.41 ± 4 kg/m3
mass density ([1]; 353 K): 1322.54 ± 4 kg/m3
mass density ([1]; 363 K): 1313.73 ± 4 kg/m3
thermal conductivity ([1]; 375 K): 0.12 ± 0.01 W/m/K

CCOP(=O)([O-])OCC.CCn1cc[n+](C)c1 [1-ethyl-3-methylimidazolium diethyl phosphate]
viscosity ([1]; 283 K): 1280 ± 150 mPa·s
viscosity ([1]; 293 K): 580 ± 65 mPa·s
viscosity ([1]; 298 K): 410 ± 44 mPa·s
thermal conductivity ([1]; 300 K): 0.19 ± 0.02 W/m/K
viscosity ([1]; 303 K): 300 ± 30 mPa·s
viscosity ([1]; 313 K): 168 ± 17 mPa·s
viscosity ([1]; 323 K): 101 ± 10 mPa·s
viscosity ([1]; 333 K): 66 ± 7 mPa·s
viscosity ([1]; 343 K): 45 ± 5 mPa·s
thermal conductivity ([1]; 375 K): 0.19 ± 0.02 W/m/K
Glass transition temperature [1]: -66 ± 2 °C
molar heat capacity at constant pressure ([2]; 298 K): 459.81 ± 47 J/K/mol
molar heat capacity at constant pressure ([2]; 303 K): 465.1 ± 47 J/K/mol
molar heat capacity at constant pressure ([2]; 308 K): 467.74 ± 47 J/K/mol
molar heat capacity at constant pressure ([2]; 313 K): 470.38 ± 48 J/K/mol
molar heat capacity at constant pressure ([2]; 318 K): 475.67 ± 48 J/K/mol
molar heat capacity at constant pressure ([2]; 323 K): 478.31 ± 48 J/K/mol
molar heat capacity at constant pressure ([2]; 328 K): 480.95 ± 49 J/K/mol
molar heat capacity at constant pressure ([2]; 333 K): 486.24 ± 49 J/K/mol
molar heat capacity at constant pressure ([2]; 338 K): 488.88 ± 49 J/K/mol
molar heat capacity at constant pressure ([2]; 343 K): 494.16 ± 50 J/K/mol

CCn1cc[n+](C)c1.O=S(=O)([O-])C(F)(F)F [1-ethyl-3-methylimidazolium trifluoromethanesulfonate]
thermal conductivity ([1]; 300 K): 0.16 ± 0.01 W/m/K
thermal conductivity ([1]; 375 K): 0.16 ± 0.01 W/m/K

CCn1cc[n+](C)c1.CS(=O)(=O)[O-] [1-ethyl-3-methylimidazolium methanesulfonate]
viscosity ([1]; 283 K): 450 ± 49 mPa·s
viscosity ([1]; 293 K): 210 ± 22 mPa·s
viscosity ([1]; 298 K): 155 ± 16 mPa·s
thermal conductivity ([1]; 300 K): 0.21 ± 0.02 W/m/K
viscosity ([1]; 303 K): 117 ± 12 mPa·s
viscosity ([1]; 313 K): 70 ± 7 mPa·s
viscosity ([1]; 323 K): 45 ± 5 mPa·s
viscosity ([1]; 333 K): 31 ± 3 mPa·s
viscosity ([1]; 343 K): 23 ± 2 mPa·s
thermal conductivity ([1]; 375 K): 0.21 ± 0.02 W/m/K
Glass transition temperature [1]: -62 ± 2 °C

CCn1cc[n+](C)c1.N#C[S-] [1-ethyl-3-methylimidazolium thiocyanate]
thermal conductivity ([1]; 300 K): 0.21 ± 0.02 W/m/K
thermal conductivity ([1]; 375 K): 0.21 ± 0.02 W/m/K
Glass transition temperature [1]: -94 ± 2 °C

CCn1cc[n+](C)c1.O=C([O-])C(F)(F)F [1-ethyl-3-methylimidazolium trifluoroacetate]
thermal conductivity ([1]; 300 K): 0.17 ± 0.01 W/m/K
thermal conductivity ([1]; 375 K): 0.17 ± 0.01 W/m/K
